Results from US10450311B2, “Pesticidally active heterocyclic derivatives with sulphur containing substituents” (Syngenta Participations AG, priority 2014, dated 2019).

What was measured:
Assay type in all cases: in vivo
[1] = test system: Euschistus heros (Neotropical Brown Stink Bug); assay: Activity against Euschistus heros, sprayed soybean leaf; details: 120 h, application rate of 200 ppm, N-2 nymphs on soybean leaf, 5 days after infestation
Description: Example B3: Activity Against Euschistus heros (Neotropical Brown Stink Bug)
Soybean leaf on agar in 24-well microtiter plates were sprayed with aqueous test solutions prepared from 10′000 ppm DMSO stock solutions. After drying the leaf were infested with N-2 nymphs. The samples were assessed for mortality 5 days after infestation.

[2] = test system: Diabrotica balteata (Corn Root Worm); assay: Activity against Diabrotica balteata, sprayed maize sprouts; details: 96 h, application rate of 200 ppm, larvae on maize sprouts, 4 days after infestation
Description: Example B2: Activity Against Diabrotica balteata (Corn Root Worm)
Maize sprouts, placed on an agar layer in 24-well microtiter plates were treated with aqueous test solutions prepared from 10′000 ppm DMSO stock solutions by spraying. After drying, the plates were infested with […] (6 to 10 per well). The samples were assessed for mortality 4 days after infestation.

[3] = test system: Spodoptera littoralis (Egyptian Cotton Leaf Worm); assay: Activity against Spodoptera littoralis, sprayed cotton leaf discs; details: foliar, 72 h, application rate of 200 ppm, L1 larvae on cotton leaf discs, 3 days after infestation, read-out: control (at least one of mortality, anti-feedant effect, growth inhibition)
Description: Example B9: Activity Against Spodoptera littoralis (Egyptian Cotton Leaf Worm)
Cotton leaf discs were placed on agar in 24-well microtiter plates and sprayed with aqueous test solutions prepared from 10′000 ppm DMSO stock solutions. After drying the leaf discs were infested with five L1 larvae. The samples were assessed for mortality, anti-feedant effect, and growth inhibition in comparison to untreated samples 3 days after infestation. Control of Spodoptera littoralis by a test sample is when at least one of mortality, anti-feedant effect, and growth inhibition is higher than the untreated sample.

[4] = test system: Spodoptera littoralis (Egyptian Cotton Leaf Worm); assay: Activity against Spodoptera littoralis, compound in agar taken up by lettuce; details: 144 h, test rate of 12.5 ppm, lettuce root uptake, 6 days after infestation, read-out: effect in at least one of the three categories (mortality, anti-feedancy, or growth inhibition)
From the text: Example B10: Activity Against Spodoptera littoralis (Egyptian Cotton Leaf Worm)
Test compounds were applied by pipette from 10′000 ppm DMSO stock solutions into 24-well plates and mixed with agar. Lettuce seeds were placed on the agar and the multi well plate was closed by another plate which contains also agar. After 7 days the roots have absorbed the compound and the lettuce has grown into the lid plate. The lettuce leafs were now cut off into the lid plate. Spodoptera eggs were pipetted through a plastic stencil on a humid gel blotting paper and the plate closed with it. The samples were assessed for mortality, anti-feedant effect and growth inhibition in comparison to untreated samples 6 days after infestation.

[5] = test system: Spodoptera littoralis (Egyptian Cotton Leaf Worm); assay: Activity against Spodoptera littoralis, systemic activity; details: 144 h, test rate of 12.5 ppm, in agar, lettuce root uptake, 6 days after infestation
From the text: Example B11: Activity Against Spodoptera littoralis (Egyptian Cotton Leaf Worm), Systemic Activity
Test compounds were applied by pipette from 10′000 ppm DMSO stock solutions into 24-well plates and mixed with agar. Lettuce seeds were placed on the agar and the multi well plate was closed by another plate which contains also agar. After 7 days the roots have absorbed the compound and the lettuce has grown into the lid plate. The lettuce leafs were now cut off into the lid plate. Spodoptera eggs were pipetted through a plastic stencil on a humid gel blotting paper and the plate closed with it. The samples were assessed for mortality 6 days after infestation.

[6] = test system: Bemisia tabaci (Cotton White Fly); assay: Activity against Bemisia tabaci, sprayed cotton leaf discs; details: foliar, 144 h, application rate of 200 ppm, adult white flies on cotton leaf discs, 6 days after incubation
Description: Example B1: Activity Against Bemisia tabaci (Cotton White Fly)
Cotton leaf discs were placed on agar in 24-well microtiter plates and sprayed with aqueous test solutions prepared from 10′000 ppm DMSO stock solutions. After drying the leaf discs were infested with adult white flies. The samples were checked for mortality 6 days after incubation. […] A35, A36 and A47. A1. A2, A3, A8, A10, A14 and A12.

[7] = test system: Plutella xylostella (Diamond Back Moth); assay: Activity against Plutella xylostella, treated artificial diet; details: 120 h, application rate of 200 ppm, L2 larvae on artificial diet, 5 days after infestation, read-out: effect in at least one of the two categories (mortality or growth inhibition)
Description: Example B8: Activity Against Plutella xylostella (Diamond Back Moth)
24-well microtiter plates with artificial diet were treated with aqueous test solutions prepared from 10′000 ppm DMSO stock solutions by pipetting. After drying, the plates were infested with L2 larvae (10 to 15 per well). The samples were assessed for mortality and growth inhibition in comparison to untreated samples 5 days after infestation.

[8] = test system: Aedes aegypti (Yellow Fever Mosquito); assay: whole plant or invertebrate; details: 48 h, test rate of 5 ppm, L2 larvae in 96-well plates, incubation period of 2 days, read-out: effect in at least one of the two categories (mortality or growth inhibition)
Description: Example B14: Activity Against Aedes aegypti (Yellow Fever Mosquito)
10 to 15 Aedes larvae (L2) together with a nutrition mixture were placed in 96-well microtiter plates. Test compounds were pipetted into the wells. After an incubation period of 2 days insects were assessed for mortality and growth inhibition.

[9] = test system: Myzus persicae (Green Peach Aphid); assay: Activity against Myzus persicae, sprayed sunflower leaf discs; details: foliar, 144 h, application rate of 200 ppm, aphid population of mixed ages on sunflower leaf discs, 6 days after infestation
Description: Example B5: Activity Against Myzus persicae (Green Peach Aphid)
Sunflower leaf discs were placed on agar in a 24-well microtiter plate and sprayed with aqueous test solutions prepared from 10′000 ppm DMSO stock solutions. After drying, the leaf discs were infested with an aphid population of mixed ages. The samples were assessed for mortality 6 days after infestation.

[10] = test system: Myzus persicae (Green Peach Aphid); assay: Activity against Myzus persicae, sucrose solution under Parafilm; details: 120 h, test rate of 12 ppm, mixed with sucrose solution, 5 days after infestation
From the text: Example B7: Activity Against Myzus persicae (Green Peach Aphid)
Test compounds from 10′000 ppm DMSO stock solutions were applied by pipette into 24-well microtiter plates and mixed with sucrose solution. The plates were closed with a stretched Parafilm. A plastic stencil with 24 holes was placed onto the plate and infested pea seedlings were placed directly on the Parafilm. The infested plate was closed with a gel blotting paper and another plastic stencil and then turned upside down. The samples were assessed for mortality 5 days after infestation. […] A30 and A32.

[11] = test system: Myzus persicae (Green Peach Aphid); assay: Activity against Myzus persicae, roots of infested pea seedlings in test solution; details: 144 h, test rate of 24 ppm, 6 days
Description: Example B6: Activity Against Myzus persicae (Green Peach Aphid)
Roots of pea seedlings infested with an aphid population of mixed ages were placed directly in the aqueous test solutions prepared from 10′000 DMSO stock solutions. The samples were assessed for mortality 6 days after placing seedlings in test solutions.

[12] = test system: Frankliniella occidentalis (Western Flower Thrips); assay: Activity against Frankliniella occidentalis, sprayed sunflower leaf discs; details: foliar, 168 h, application rate of 200 ppm, population of mixed ages on sunflower leaf discs, 7 days after infestation
Description: Example B4: Activity Against Frankliniella occidentalis (Western Flower Thrips)
Sunflower leaf discs were placed on agar in 24-well microtiter plates and sprayed with aqueous test solutions prepared from […] stock solutions. After drying the leaf discs were infested with a Frankliniella population of mixed ages. The samples were assessed for mortality 7 days after infestation.

CCn1c(C(F)(F)F)cc2nc(-c3ncc(Br)cc3S(=O)(=O)CC)n(C)c2c1=O [Compound A31, 2-(5-bromo-3-ethylsulfonyl-2-pyridyl)-5-ethyl-3-methyl-6-(trifluoromethyl)imidazo[4,5-c]pyridin-4-one]
≥ 80%: mortality at 200 ppm [1] | mortality at 200 ppm [2] | percent control (mortality, anti-feedant effect or growth inhibition) at 200 ppm [3] | percent control (mortality, anti-feedancy or growth inhibition) at 12.5 ppm [4] | mortality at 12.5 ppm [5] | mortality at 200 ppm [6] | percent effect (mortality or growth inhibition) at 200 ppm [7] | percent effect (mortality or growth inhibition) at 5 ppm [8] | mortality at 200 ppm [9]

CCn1c(C(F)(F)F)cc2nc(-c3ncc(C(F)(F)F)cc3S(=O)(=O)CC)n(C)c2c1=O [Compound A2]
≥ 80%: mortality at 200 ppm [1] | mortality at 200 ppm [2] | percent control (mortality, anti-feedant effect or growth inhibition) at 200 ppm [3] | mortality at 200 ppm [6] | percent effect (mortality or growth inhibition) at 200 ppm [7] | percent effect (mortality or growth inhibition) at 5 ppm [8] | mortality at 200 ppm [9]

CCS(=O)(=O)c1cc(C(F)(F)F)cnc1-c1nc2cc(C(F)(F)F)n(Cc3ccccc3)c(=O)c2n1C [Compound A4, 5-benzyl-2-[3-ethylsulfonyl-5-(trifluoromethyl)-2-pyridyl]-3-methyl-6-(trifluoromethyl)imidazo[4,5-c]pyridin-4-one]
≥ 80%: mortality at 200 ppm [2] | percent control (mortality, anti-feedant effect or growth inhibition) at 200 ppm [3] | mortality at 12 ppm [10] | percent effect (mortality or growth inhibition) at 200 ppm [7]

CCn1c(C(F)(F)F)cc2nc(-c3ncc(-c4ccc(C(F)(F)F)cc4)cc3S(=O)(=O)CC)n(C)c2c1=O [Compound A35, 5-ethyl-2-[3-ethylsulfonyl-5-[4-(trifluoromethyl)phenyl]-2-pyridyl]-3-methyl-6-(trifluoromethyl)imidazo[4,5-c]pyridin-4-one]
≥ 80%: mortality at 200 ppm [1] | mortality at 200 ppm [2] | percent control (mortality, anti-feedant effect or growth inhibition) at 200 ppm [3] | mortality at 12.5 ppm [5] | mortality at 200 ppm [6] | percent effect (mortality or growth inhibition) at 200 ppm [7] | mortality at 200 ppm [9]

CCSc1cc(C(F)(F)F)cnc1-c1nc2cc(C(F)(F)F)c(=O)n(C)c2n1C [Compound B1, 2-[3-ethylsulfanyl-5-(trifluoromethyl)-2-pyridyl]-3,4-dimethyl-6-(trifluoromethyl)imidazo[4,5-b]pyridin-5-one]
≥ 80%: mortality at 12 ppm [10] | mortality at 200 ppm [9]

C=CCn1c(C(F)(F)F)cc2nc(-c3ncc(C(F)(F)F)cc3S(=O)(=O)CC)n(C)c2c1=O [Compound A3, 5-allyl-2-[3-ethylsulfonyl-5-(trifluoromethyl)-2-pyridyl]-3-methyl-6-(trifluoromethyl)imidazo[4,5-c]pyridin-4-one]
≥ 80%: mortality at 200 ppm [1] | mortality at 200 ppm [2] | percent control (mortality, anti-feedant effect or growth inhibition) at 200 ppm [3] | mortality at 200 ppm [6] | percent effect (mortality or growth inhibition) at 200 ppm [7]

CCS(=O)(=O)c1cc(C(F)(F)F)cnc1-c1nc2cc(C(F)(F)F)c(=O)n(C)c2n1C [Compound B2, 2-[3-ethylsulfonyl-5-(trifluoromethyl)-2-pyridyl]-3,4-dimethyl-6-(trifluoromethyl)imidazo[4,5-b]pyridin-5-one]
≥ 80%: mortality at 200 ppm [1] | mortality at 200 ppm [2] | mortality at 24 ppm [11] | mortality at 200 ppm [6] | mortality at 12 ppm [10] | mortality at 200 ppm [9]

CCS(=O)(=O)c1cc(C(F)(F)F)ccc1-c1nc2cc(C(F)(F)F)n(C)c(=O)c2n1C [Compound A73, 2-[2-ethylsulfonyl-4-(trifluoromethyl)phenyl]-3,5-dimethyl-6-(trifluoromethyl)imidazo[4,5-c]pyridin-4-one]
≥ 80%: mortality at 200 ppm [1] | mortality at 200 ppm [2] | mortality at 24 ppm [11] | percent control (mortality, anti-feedant effect or growth inhibition) at 200 ppm [3] | percent control (mortality, anti-feedancy or growth inhibition) at 12.5 ppm [4] | mortality at 12.5 ppm [5] | percent effect (mortality or growth inhibition) at 200 ppm [7] | percent effect (mortality or growth inhibition) at 5 ppm [8] | mortality at 200 ppm [9]

CCS(=O)(=O)c1cc(C2CC2)cnc1-c1nc2cc(C(F)(F)F)n(C)c(=O)c2n1C [Compound A23]
≥ 80%: mortality at 200 ppm [1] | mortality at 200 ppm [2] | mortality at 24 ppm [11] | percent control (mortality, anti-feedant effect or growth inhibition) at 200 ppm [3] | mortality at 12.5 ppm [5] | percent effect (mortality or growth inhibition) at 200 ppm [7] | mortality at 200 ppm [12] | percent effect (mortality or growth inhibition) at 5 ppm [8] | mortality at 200 ppm [9]
